Experimental data: patent publication US7319094B2, “Increased and sustained in vivo gene expression using a nucleic acid, histone and amphipathic compound composition” (Rhode Island Hospital, priority 2001, dated 2008)

Tests used:
GAPDH = GAPDH immunoreactivity in AD7c-NTP-transfected PNET2 cells, MICE assay; type: cell-based, human; conditions: IPTG 3 mM
From the text: The MICE assay is known in the art (e.g., as described by de la Monte et al., 1999, Biotechniques 26:107301076). The assay is a rapid and sensitive method for quantifying immunoreactivity in 96-well micro-cultures and combines the advantages of the enzyme-linked immunosorbant assay with immunocytochemical staining to permit sensitive in situ quantification of protein expression with values normalized to cell density. The cells were fixed in Histochoice (Amresco, Solon, Ohio), permeabilized with 0.05% saponin in Tris-buffered saline (50 mM Tris, pH 7.5, 0.9% NaCl; TBS), and blocked with Superblock-TBS (Pierce, Rockford, Ill.). […] Immunoreactivity was detected using horseradish peroxidase conjugated secondary antibody (Pierce, Rockford, Ill.) and the TMB soluble peroxidase substrate (Pierce, Rockford, Ill.). Absorbances were measured at 450 nm using a Spectracount plate reader.
To compare the levels of protein expression it was necessary to correct for differences in cell density. […] The absorbances (560 nm) were measured using a Spectracount plate reader (Packard Instrument Company, Meriden, Conn.). The MICE index was calculated from the ratio of the absorbances measured for immunoreactivity and cell density. Coomassie blue absorbance increases linearly with cell density between 1×10^4 and 5×10^5 cells per well. Eight or 16 replicate culture wells were analyzed in each experiment. […]

AD7c-NTP = AD7c-NTP expression in stably transfected PNET2 cells (LacSwitch II inducible system), Western blot / MICE assay; type: cell-based, human
From the text: Prior to the invention, cells stably transfected with AD7c-NTP could not be maintained because of progressive cell death. Therefore, an inducible system of AD7c-NTP expression was established using the LacSwitch II mammalian expression vector (Stratagene, La Jolla, Calif.). PNET2 human CNS neuronal cells were stably transfected with the pCMVLacII vector in which the Lac repressor protein driven by a CMV promoter. The Lac repressor protein is targeted to the nucleus by the nuclear localization sequence. […]
Standard Western blot assays wew used to measure cellular levels of p53, Bcl-2, p21/Waf1, phospho-tau, tau, c-fos, NTP, and activated (phosphorylated) forms of Erk mitogen activated protein (MAP) kinase, amino-terminal c-jun-activated kinase (pJNK), and p38/HOG1. […] Protein concentrations were measured using the BCA assay (Pierce, Rockford, Ill.). Samples containing 60 μg of protein were fractionated by sodium dodecyl sulfate polyacrylamide gel electrophoresis (SDS-PAGE), then transferred to PVDF membranes, and analyzed by Western immunoblotting. Immunoreactivity was detected with horseradish peroxidase conjugated secondary IgG and PicoWest enhanced chemiluminescence reagents (Pierce Chemical Company, Rockford, Ill.). CAT activity was measured using known methods. […]

levels of GAPDH (MICE assay) (GAPDH): no change
increase in N314-immunoreactive NTP (MICE assay) (AD7c-NTP; IPTG 3 mM, 24 hours of induction): greater than five-fold
Structure (SMILES): CC(C)S[C@@H]1O[C@H](CO)[C@H](O)[C@H](O)[C@H]1O [IPTG, Isopropyl-1-[…]-D-thiogalactopyranoside]
optimum concentration for inducing gene expression (AD7c-NTP; PNET2 clones): 3 mM
